Measurements from US9522873B2, “Biphenyl derivative, pharmaceutically acceptable salt thereof, and methods for preventing or treating inflammatory diseases or autoimmune diseases” (Dongguk University Industry-Academic Cooperation Foundation, priority 2011, dated 2016).

Key:
Assay type in all cases: in vivo
[1] = tested on: TPA-induced ear edema (inflammation) mouse models; assay: TPA-induced ear edema (inflammation) mouse model: ear weight and H&E staining; conditions: ICR male mice, 20 μl of 0.3% and 1% applied to left ear 1 hour and 6 hours after TPA, harvested after 24 hours
Protocol: (§1) The following experiment was performed using tetradecanoyl phorbol acetate (TPA)-induced ear edema (inflammation) mouse models to analyze the anti-inflammatory activity of the novel biphenyl compounds obtained in Example 1. The TPA-induced ear edema mouse model has been widely used to investigate the mechanism of the inflammatory response and the effects of inhibitory substances (Agents and Actions. 1989. 26; 335-341). More specifically, 6-week-old ICR male mice were prepared, and each 20 μl of a TPA solution dissolved in acetone at a concentration of 125 μg/ml was applied to the left ears of mice. After 1 hour of the TPA application, each 20 μl of the solvent or compound 6 (0.3% and 1%) prepared in Example 1 and dissolved in the solvent was applied to the left ears of mice and reapplied after 6 hours of the TPA application. Indomethacin, an anti-inflammatory agent, was applied to the positive control group. Each predetermined area of the left ears of mice was harvested after 24 hours of the TPA application. The weight of each of the left ears of mice was measured, and H&E staining and immunohistochemical staining were performed on ear tissues.

[2] = tested on: inflammation-related protein p65; assay: TPA-induced ear edema mouse model: immunohistochemical staining of ear tissue for p65; conditions: ear tissue of TPA-treated ICR mice, 24 hours after TPA, FIG. 7
Protocol: as §1

[3] = tested on: anti-inflammatory protein IkB (inhibitory kappa B); assay: TPA-induced ear edema mouse model: immunohistochemical staining of ear tissue for IkB; conditions: ear tissue of TPA-treated ICR mice, 24 hours after TPA, FIG. 8
Protocol: as §1

CCCCC(=O)N(Cc1ccc(-c2ccccc2C(=O)N2CCN(C)CC2)cc1)c1ccccc1 [compound 4, N-[(2′-(4-methylpiperazine-1-carbonyl)biphenyl-4-yl)methyl]-N-phenylpentanamide]
inflammation and edema induced by TPA (ear weight) ([1]; FIG. 5): inhibited
ear tissues thickened by the edema induced by TPA (H&E staining) ([1]; FIG. 6): recovered to normal level
expression of inflammation-related protein p65 [2]: decreased
expression of anti-inflammatory protein IkB (inhibitory kappa B) [3]: increased
